# Measurements published in article PMC12136442, “Cholesterol metabolism and intrabacterial potassium homeostasis are intrinsically related in Mycobacterium tuberculosis” (PLOS Pathogens, 2025).
# Experiments:
# CeoB [1] = biological target: T1, CeoB (Mycobacterium tuberculosis, UniProt Q7D6R7)
# MceG = biological target: T2, MceG (Mycobacterium tuberculosis, UniProt P9WQL5)
# T2 construct: gene mkl
# CeoB [2] = biological target: T1, CeoB; remark: listed apart in the source
# T1 sequence (Q7D6R7 entry or part of it): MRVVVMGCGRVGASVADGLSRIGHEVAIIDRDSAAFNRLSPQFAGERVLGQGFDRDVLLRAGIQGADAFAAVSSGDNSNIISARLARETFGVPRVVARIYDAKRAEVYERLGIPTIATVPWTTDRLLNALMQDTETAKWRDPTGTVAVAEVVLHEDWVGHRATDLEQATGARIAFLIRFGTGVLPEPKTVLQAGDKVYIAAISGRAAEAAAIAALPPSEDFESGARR
# T2 sequence (P9WQL5 whole entry): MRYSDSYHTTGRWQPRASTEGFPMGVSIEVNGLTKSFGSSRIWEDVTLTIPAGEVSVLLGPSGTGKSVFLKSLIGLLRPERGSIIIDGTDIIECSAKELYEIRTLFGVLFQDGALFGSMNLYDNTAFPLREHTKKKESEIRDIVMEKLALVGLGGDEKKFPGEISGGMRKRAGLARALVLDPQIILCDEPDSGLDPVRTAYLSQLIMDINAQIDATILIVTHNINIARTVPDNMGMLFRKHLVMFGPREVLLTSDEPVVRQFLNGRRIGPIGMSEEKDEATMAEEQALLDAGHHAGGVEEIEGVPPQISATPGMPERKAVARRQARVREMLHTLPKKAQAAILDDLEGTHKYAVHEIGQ
smiles,measurement,setting,value
CC(C)CCC[C@@H](C)[C@H]1CC[C@H]2[C@@H]3CC=C4C[C@@H](O)CC[C@]4(C)[C@H]3CC[C@]12C [cholesterol],band intensity at 65oC/50oC,CeoB [1],the presence of cholesterol resulted in an increase in CeoB thermostability
Nc1ncnc2c1ncn2[C@@H]1O[C@H](COP(=O)(O)OP(=O)(O)OP(=O)(O)O)[C@@H](O)[C@H]1O [ATP],ADP-Glo kinase assay (luminescence),MceG,purified MceG exhibited ATPase activity
"CC(C)[C@@H](C)/C=C/[C@@H](C)[C@H]1CC[C@H]2C3=CC=C4C[C@@H](O)CC[C@]4(C)C3=CC[C@]12C [dehydroergosterol, ergosta-5,7,9(11),22-tetraen-3β-ol]","DHE fluorescence increase (ex 338 nm, em 381 nm)",CeoB [2],incubation of CeoB with DHE resulted in significantly higher DHE fluorescence signal
